# Experiments:
# [1] = tested on: mitochondria isolated from A549 cells; test: Cyt c release from isolated mitochondria; type: biochemical, human; conditions: 1 μM, 30 min, 30 °C
# Protocol: Figure 3 Bak is required for BKA-073 induction of mitochondrial priming, Cyt c release and apoptotic cell death. (A) Levels of Bak and Bax were analyzed by Western blot in parental, Bak ^-/-, Bax ^-/- or Bax/Bak double-knockout (DKO) A549 cells. (B-C) Parental, Bak ^-/-, Bax ^-/- or DKO A549 cells were treated with BKA-073 (1μM) for 16h or 72h, followed by analysis of dynamic BH3 profiling (B) or apoptotic cell death (C), respectively. Data represent the mean ± SD, n = 3 per group. ***P < 0.001, by 2-tailed t test. (D) Parental, Bak ^-/-, Bax ^-/- or DKO A549 cells were treated with BKA-073 (1μM) for 24 h. Mitochondrial and cytosolic fractions were isolated. Levels of Cyt c in these two fractions were analyzed by western blot. (E) Mitochondria were isolated from parental, Bak ^-/-, Bax ^-/- or DKO A549 cells. The isolated mitochondria were then treated with BKA-073 (1μM) in mitochondrial buffer for 30 min at 30 °C. After centrifugation, Cyt c in supernatant fraction (i.e. Cyt c release) and Cyt c in mitochondrial pellet were analyzed by western blot.
# To further test whether Bak is required for BKA-073 induction of Cyt c release, A549 parental, Bak^-/-, Bax^-/- and DKO cells were treated with BKA-073 (1 μM) for 24h, followed by analysis of Cyt c release from mitochondria. […] After centrifugation at 13000 g for 5 min, Cyt c in the supernatant (i.e., Cyt c release) was analyzed by Western blot.
# [2] = tested on: A549 cells; test: Dynamic BH3 profiling (DBP), mitochondrial priming; type: cell-based, human; conditions: 0, 0.25, 0.5, 0.75, 1.0 µM, 16h
# Protocol: DBP using Bim peptide was carried out as described previously [24]-[26]. After treatment with BKA-073, venetoclax (ABT-199) or DMSO control for 16h, cells were collected, washed and resuspended at 2 x 10^6 cells/ mL in mannitol experimental buffer (MEB) [150 mM D-mannitol, 10 mM HEPES-KOH (pH 7.5), 50 mM KCl, 20 μM EGTA, 20 μM EDTA, 0.1% BSA, and 5 mM succinate] as described. One volume of the 4x cell suspension was added to one volume of a 4x dye solution containing 4 μM JC-1, […] oligomycin, 0.02% digitonin, 20mM β-mercaptoethanol in MEB. The 2x cell/dye mixture was allowed to rest for 5-10 min at room temperature to allow for permeabilization and JC-1 staining. A total of 15μl of the 2x cell/dye mixture was loaded into a 384-well plate that contained 15µL of Bim BH3 peptide (0.03, 0.1, 0.3, 1, and 3 μM) in MEB, shaken for 15 s inside the reader, and the fluorescence at 590 nm monitored every 5 min for 180 min at 32 °C. The dynamic BH3 profile (∆ % Priming) was calculated as described [24]-[26].
# The BH3 death domain is known to be required for the proapoptotic function of Bak. […] The top 500 compounds determined to have the highest affinity for the BH3 domain were obtained from the NCI and tested for cytotoxicity in human lung cancer cells (i.e. H1299, H460 and A549 cells) by sulforhodamine B (SRB) assay for further screening as described, [36]. […]
# [3] = tested on: Bak-/- A549 xenografts; test: Bak-/- A549 xenografts, tumor growth; type: in vivo, Nu/Nu nude mice; conditions: 12.5mg/kg/d i.p., 28 days
# Protocol: Six-week-old female Nu/Nu nude mice were purchased from Envigo (Indianapolis, IN) and housed under pathogen-free conditions in microisolator cages. The animal propagation protocol was approved by the Emory Institutional Animal Care and Use Committee (IACUC) and the Emory Animal Ethics Committee. 3×10^6 lung cancer cells were injected into subcutaneous tissue in the flank region of nude mice. The tumors were allowed to grow to an average volume of 150~200 mm^3 prior to initiation of therapy as previously described, [29]. Patient-derived xenografts (PDXs, TKO-002 and TKO-005) were established as part of an IRB-approved phase II co-clinical trial of arsenic trioxide in patients with relapsed SCLC who had failed standard platinum-based chemotherapy. Tumor samples were obtained by image-guided biopsy and were directly implanted into Nu/Nu nude mice without intervening propagation in plastic culture plates. Direct serial propagation of growing tumor occurred for up to 5 generations. The animal propagation protocol was approved by the Emory IACUC and the Emory Animal Ethics Committee. Mice with SCLC and NSCLC xenografts or PDXs were treated with BKA-073 intraperitoneally (i.p.) or venetoclax orally as indicated. During treatment, tumor volume (V) was measured by caliper measurements once every two days as described previously. Mice were euthanized by CO2 inhalation at the end of treatment. […]
compound,measurement,setting,value
COc1ccc2nc3ccccc3c(NCCNCC(C)O)c2c1 (stereo not shown) [BKA-073],Cyt c release from isolated mitochondria,[1]; mitochondria from A549 Bax-/- cells,induced Cyt c release
same,Cyt c release from isolated mitochondria,[1]; mitochondria from A549 parental cells,induced Cyt c release
same,induction of mitochondrial priming (∆% priming),[2],in a dose-dependent manner
same,tumor growth,[3],no inhibitory effect
